The values that follow come from patent US20240166658A1, “PORPHYRIN DERIVATIVES AND USES THEREOF” (University of Tasmania, priority 2021, published 2024).

Structures are written as SMILES.

Assay [1] can be described thus: Colorimetric matching of a PFCA sample, organic. The following applies: CIE76. As for the experimental part: To probe the sensitivity of this technique visually, a colour chart based on the response of host (12) to known concentrations of PFOA was tested against another PFCA. The PFCA was chosen to be PFHxA, as PFOA was used for the calibration process. Samples of PFHxA (4 ppm) were prepared and combined with host (12). The average colour from triplicate experiments was compared to a calibration chart. The RGB values for host (12) were collected at six concentrations of PFOA. To make a direct comparison to the 4 ppm PFHxA sample, a colour chart was generated by fitting four colour points between the measured values for 0 and 5 ppm of PFOA. The generated RGB value for the 4 ppm PFOA was then compared to the measured RGB value for the 4 ppm PFHxA sample. […] The 3 and 5 ppm PFOA colours had ΔE values of 10.3 and 9.5 respectively, making the 4 ppm colour the most suitable match.

The nature of assay [2]: UV-Vis host-guest titration, association constant. The class given is binding. The settings on record: host (9) in dichloromethane; triplicate, TBA salt and acid; Bindfit. As for the experimental part: (§1) Path length of the quartz cell was 1 cm. For UV-vis titrations, a stock solution of host was prepared (2.2×10^−3 M) in dichloromethane (DCM) and serially diluted to the required concentrations. Working solutions of tetrabutylammonium (TBA) anion salts or guest molecules were prepared in the same manner Host−guest titrations used solutions of guest prepared in the working concentration of host solution, according to the procedure of Thordarson, 2011.
(§2) UV-vis spectroscopic host−guest titrations were performed in accordance with the methodologies of Thordarson, 2011. Solutions of host in dichloromethane were prepared. Solutions of guest were then prepared in the host solution. Aliquots of guest in host solution were added to host solution and sequentially analysed until a known molar equivalent of guest was added. The amount of guest added per aliquot was ascertained by a preliminary screening experiment; strong association constants required smaller molar equivalents so more information could be collected. By way of example, host (9) responded to 0.1 molar equivalent of PFBA strongly, so an addition of 1 molar equivalent of PFBA would result in a loss of information. The inverse is true for weaker binding interactions. […]
(§3) A host solution of host (9) in dichloromethane was monitored using UV-Vis analysis as 0.5-10 equivalents of each PFAS was added. […]

Assay [3] is described as follows: UV-Vis host-guest titration, association constant. The class given is binding. The following applies: host (9) in dichloromethane; triplicate, TBA salt and acid; Bindfit. As for the experimental part: as §1, §2, §3
The source holds these as a separate data set.

The nature of assay [4]: UV-Vis host-guest titration, association constant. It counts as binding. The settings on record: host (9) in dichloromethane; triplicate, TBA salt and acid; Bindfit. As for the experimental part:
as §1, §2, §3
The source holds these as a separate data set.

The nature of assay [5]: Anion selectivity screening with TBA salts, UV-Vis. It counts as binding. The following applies: dichloromethane. As for the experimental part:
The selectivity of the host (9) for anions was investigated visually and spectroscopically. The TBA salts of anions commonly found in significant concentrations in water samples were added in 10 molar equivalents to solutions of host to give preliminary indications of host−guest interactions prior to more extensive investigation. Although not an accurate proxy of real-world matrix concentrations, it was thought that the binding of any anions would indicate any affinity for other anions.

Assay [6] in a line: Non-fluorinated and neutral fluorinated guest molecules, UV-Vis. The following applies: 10 molar equivalents, dichloromethane; immediately and 24 hours later. The class given is binding. As for the experimental part:
The binding interaction was probed by combining the host (9) with non-fluorinated and neutral fluorinated guest molecules. Solutions of host (9) in dichloromethane were combined with 10 molar equivalents of tetrafluorobenzene and nonanoic acid. Solutions were analysed using UV-Vis spectroscopy (immediately and 24 hours later) to check for any indication of binding.

A short description of assay [7]: Preliminary binding study, colour change. The text has this: Preliminary binding studies were undertaken by combining an amide linked porphyrin host molecule (9) and tetrabutylammonium perfluorooctanoate (TBAPFO) in dichloromethane.
A short description of the next assay: Filter paper tests. The following applies: aqueous PFOA in the <5 ppm range, dipped or dropped. As for the experimental part:
Sensor molecule (9) was dissolved in dichloromethane and filter papers were soaked in the solution. The papers were removed and dried by evaporation. The paper was then dipped into aqueous solutions of PFOA or aqueous solutions were dropped onto the paper. […] The aqueous solutions of PFOA tested were in the <5 ppm range.

The nature of assay [8]: GenX vapour test with host-doped filter paper. The settings on record: for colour of host-doped paper in tube headspace: one hour. As for the experimental part: A solution of medium chain host (9) (2.20×10^−5 M) in dichloromethane was prepared. Whatman 4 filter papers were soaked/dipped in the host solution and left to air dry on a watch glass. An aqueous solution of GenX™ (1 ppm, 3.03×10^−6 M) was prepared in a glass volumetric flask (1 L). The volumetric flask stopper was removed, and the dried host-doped paper was laid on top the opening.
An aqueous solution of GenX™ (1 ppm, 3.03×10^−6 M) was prepared in a glass volumetric flask (1 L). A solution of medium chain host (2.20×10^−5 M) in dichloromethane was prepared. Whatman 4 filter papers were soaked/dipped in the host solution and left to air dry on a watch glass. The filter papers were cut into strips and adhered to the lids of HDPP tubes. Aqueous samples of GenX™ were diluted to 1 ppm, 1 ppb and 1 ppt and poured into the HDPP tubes. The caps were immediately replaced, and the tubes were left for an hour.

Assay [9] is described as follows: GenX, water and HDPP tube experiment (biphasic). As for the experimental part:
A solution of medium chain amide host (2.04×10^−5 M) in dichloromethane was added to an aqueous solution of GenX™ (5 ppm, 1.51×10^−5 M 50 mL) in a volumetric flask. […] Both phases were then transferred via pouring to a HDPP tube. The green colour persisted initially but began to reduce with time.

`O=C(Nc1ccccc1-c1c2nc(c(-c3ccccc3NC(=O)C(F)(F)C(F)(F)C(F)(F)C(F)(F)C(F)(F)C(F)(F)C(F)(F)C(F)(F)C(F)(F)C(F)(F)C(F)(F)F)c3ccc([nH]3)c(-c3ccccc3NC(=O)C(F)(F)C(F)(F)C(F)(F)C(F)(F)C(F)(F)C(F)(F)C(F)(F)C(F)(F)C(F)(F)C(F)(F)C(F)(F)F)c3nc(c(-c4ccccc4NC(=O)C(F)(F)C(F)(F)C(F)(F)C(F)(F)C(F)(F)C(F)(F)C(F)(F)C(F)(F)C(F)(F)C(F)(F)C(F)(F)F)c4ccc1[nH]4)C=C3)C=C2)C(F)(F)C(F)(F)C(F)(F)C(F)(F)C(F)(F)C(F)(F)C(F)(F)C(F)(F)C(F)(F)C(F)(F)C(F)(F)F` [host (12), α,α,α,α-5,10,15,20-tetrakis(2-(tricosafluorododecanoylamino)phenyl) porphyrin]: the “ΔE, PFOA chart colour vs 4 ppm PFHxA sample” value in [1] (3 ppm PFOA colour) stood at 10.3; in assay [1] (4 ppm PFOA colour), 7.3; in assay [1] (5 ppm PFOA colour), 9.5.

For the compound `O=C(Nc1ccccc1-c1c2nc(c(-c3ccccc3NC(=O)C(F)(F)C(F)(F)C(F)(F)C(F)(F)C(F)(F)C(F)(F)C(F)(F)F)c3ccc([nH]3)c(-c3ccccc3NC(=O)C(F)(F)C(F)(F)C(F)(F)C(F)(F)C(F)(F)C(F)(F)C(F)(F)F)c3nc(c(-c4ccccc4NC(=O)C(F)(F)C(F)(F)C(F)(F)C(F)(F)C(F)(F)C(F)(F)C(F)(F)F)c4ccc1[nH]4)C=C3)C=C2)C(F)(F)C(F)(F)C(F)(F)C(F)(F)C(F)(F)C(F)(F)C(F)(F)F` [host (9), α,α,α,α-5,10,15,20-tetrakis(2-(pentadecafluorooctanoylamino)phenyl)porphyrin], the “K value (averaged association constant Ka)” value in [2] was 58920; in [3] it was 15272; in assay [4] it was 6585. Moreover, the “shift in the Q band” value in assay [5] (10 molar equivalents of TBA salt) is around 32 nm. The “UV-Vis change after addition of anion” value in assay [5] (10 molar equivalents of TBA salts) is recorded as “no significant change”. For the same compound, the colorimetric response entry in assay [6] is given as “no colorimetric response”. For the same compound, the “colour change of host solution” value in assay [7] (addition of solid TBAPFO to red-brown host solution in dichloromethane) was “changed colour to green”. Besides, in assay [7] (host in dichloromethane (0.0124 mmol, 5 mL) and TBAPFO 3 ppm in water (500 mL)), the “colour change of host solution, biphasic” value was “colour change of the host solution could also be observed”. Moreover, in “Filter paper tests”, the “colour change of host-soaked filter paper” value is listed as “A colour change was discernible”. The “colour change of host-doped paper over aqueous GenX” value in assay [8] (GenX 1 ppm in water, paper on flask opening) is “A colour change developed immediately”. In addition, the “colour of host-doped paper in tube headspace” value in assay [8] (aqueous GenX 1 ppb) and in assay [8] (aqueous GenX 1 ppm) was “A green colour was visible” in each case. In addition, in assay [9] (after 24 hours), the “colour of host solution after transfer to HDPP tube” value was “significant reduction in the intensity of the green colour”. Also, the “colour of host solution” value in [9] (host 2.04×10^−5 M in dichloromethane added to aqueous GenX 5 ppm) is listed as “immediately became a vibrant green colour”.
